Results reported in ChEMBL document CHEMBL1201862, “PubChem BioAssay data set” (2004).
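Protocol summary: plate cells (96-well), add compound at 5 concentrations, incubate 48 h, interpolate endpoints linearly. GI50 = concentration required for 50% inhibition of growth.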 Active and inactive are the calls of the source. No stated cut-off is given here; in the data, active = GI50 up to about 1.1 µM and inactive = higher.

Assays:
Assay in all cases: growth of human tumour cells (NCI), 48 h
[1] = test system: A498
[2] = test system: CCRF-CEM
[3] = test system: HOP-92
[4] = test system: HT-29
[5] = test system: K562
[6] = test system: Malme-3M
[7] = test system: NCI-H522
[8] = test system: OVCAR-3
[9] = test system: OVCAR-8
[10] = test system: SN12C
[11] = test system: TK-10
[12] = test system: U-251
[13] = test system: UACC-257
[14] = test system: UO-31
[15] = test system: HCC 2998
[16] = test system: M14
[17] = test system: NCI-H226

SMILES	GI50 [1]	GI50 [2]	GI50 [3]	GI50 [4]	GI50 [5]	GI50 [6]	GI50 [7]	GI50 [8]	GI50 [9]	GI50 [10]	GI50 [11]	GI50 [12]	GI50 [13]	GI50 [14]	GI50 [15]	GI50 [16]	GI50 [17]
Cc1c2cc[n+](COC(=O)c3ccccc3)cc2c(C)c2c1[nH]c1ccccc12	1.23 µM (inactive)	0.434 µM (active)	0.682 µM (active)	0.453 µM (active)	0.388 µM (active)	1.46 µM (inactive)	1.08 µM (active)	1.37 µM (inactive)	0.551 µM (active)	0.533 µM (active)	1.58 µM (inactive)	0.515 µM (active)	1.52 µM (inactive)	2.03 µM (inactive)			
ClC1c2ccccc2C2(c3ccccc3)OOC1(c1ccccc1)O2 (stereo not drawn)	2.39 µM (inactive)		0.39 µM (active)	2 µM (inactive)	1.38 µM (inactive)	2.63 µM (inactive)	0.243 µM (active)	1.77 µM (inactive)	2.03 µM (inactive)	1.48 µM (inactive)	2.58 µM (inactive)	1.9 µM (inactive)	1.99 µM (inactive)	1.69 µM (inactive)	2.34 µM (inactive)	1.45 µM (inactive)	2.32 µM (inactive)
CC(C)(C)C(=O)ON1N=NC2C3CC(OCc4ccccc4)(OCc4ccccc4)C(O3)C21 (stereo not drawn)	35.7 µM (inactive)	4.4 µM (inactive)	12 µM (inactive)	22.3 µM (inactive)	11.7 µM (inactive)	16.3 µM (inactive)		16.9 µM (inactive)		19.3 µM (inactive)		16.9 µM (inactive)	13.7 µM (inactive)	22.4 µM (inactive)	14.2 µM (inactive)	26.4 µM (inactive)	17.7 µM (inactive)
CC(=O)CC(=O)/C=C/c1cccs1	64.9 µM (inactive)	38.5 µM (inactive)		58.9 µM (inactive)	47.1 µM (inactive)	58.2 µM (inactive)	42.3 µM (inactive)	> 100 µM (inactive)	> 100 µM (inactive)	63 µM (inactive)	> 100 µM (inactive)	> 100 µM (inactive)	> 100 µM (inactive)	93.3 µM (inactive)		54.2 µM (inactive)	> 100 µM (inactive)
O=c1[nH]c(=O)n(C2OC3COC2C3O)cc1F (stereo not drawn)		> 100 µM (inactive)	29.8 µM (inactive)	> 100 µM (inactive)	> 100 µM (inactive)	> 100 µM (inactive)	> 100 µM (inactive)	> 100 µM (inactive)	> 100 µM (inactive)	> 100 µM (inactive)	> 100 µM (inactive)	> 100 µM (inactive)	> 100 µM (inactive)	> 100 µM (inactive)	> 100 µM (inactive)	> 100 µM (inactive)	41.5 µM (inactive)
O=C(CCCCCCCCCCc1ccccc1)C1=C(O)CC(O)CC1=O (stereo not drawn)		45.1 µM (inactive)	33.3 µM (inactive)	47.6 µM (inactive)	30.5 µM (inactive)		33.4 µM (inactive)	52.6 µM (inactive)	49.7 µM (inactive)	96.2 µM (inactive)	64.6 µM (inactive)	55.1 µM (inactive)	63.1 µM (inactive)	60.5 µM (inactive)	34.9 µM (inactive)	59.8 µM (inactive)	24 µM (inactive)
CCOc1cccc2c1N[S@@](=O)S2		40.6 µM (inactive)	> 100 µM (inactive)	> 100 µM (inactive)	53.3 µM (inactive)	> 100 µM (inactive)	55.5 µM (inactive)	> 100 µM (inactive)		> 100 µM (inactive)	> 100 µM (inactive)	47.8 µM (inactive)	> 100 µM (inactive)	98.4 µM (inactive)		> 100 µM (inactive)	> 100 µM (inactive)
CN(C)CCNC(=O)c1cccc2nc3ccc4cccnc4c3nc12	0.214 µM (active)	0.213 µM (active)	0.351 µM (active)	0.208 µM (active)	0.346 µM (active)			0.61 µM (active)	0.194 µM (active)	0.172 µM (active)	0.107 µM (active)	0.405 µM (active)	0.447 µM (active)	0.205 µM (active)	0.635 µM (active)	0.631 µM (active)	0.319 µM (active)
CCO/C([O-])=C(/C=O)[n+]1c(C)n(C)c2ccccc21	> 100 µM (inactive)	> 100 µM (inactive)		> 100 µM (inactive)	> 100 µM (inactive)	> 100 µM (inactive)	> 100 µM (inactive)	> 100 µM (inactive)	> 100 µM (inactive)		> 100 µM (inactive)	> 100 µM (inactive)	> 100 µM (inactive)	> 100 µM (inactive)	> 100 µM (inactive)	> 100 µM (inactive)	> 100 µM (inactive)
O=C(Nc1c(O)[nH]c(=S)[nH]c1=O)c1ccc2ccccc2n1	> 100 µM (inactive)	> 100 µM (inactive)	> 100 µM (inactive)	> 100 µM (inactive)	> 100 µM (inactive)	> 100 µM (inactive)	> 100 µM (inactive)	> 100 µM (inactive)	> 100 µM (inactive)	> 100 µM (inactive)	> 100 µM (inactive)	> 100 µM (inactive)	> 100 µM (inactive)	> 100 µM (inactive)		> 100 µM (inactive)	> 100 µM (inactive)
C1CCC(N=C2N(C3CCCCC3)C(=NC3CCCCC3)N2C2CCCCC2)CC1	> 10 µM (inactive)	> 100 µM (inactive)	30.3 µM (inactive)	> 100 µM (inactive)	> 100 µM (inactive)	> 100 µM (inactive)	> 100 µM (inactive)	> 100 µM (inactive)	> 100 µM (inactive)	> 100 µM (inactive)	> 100 µM (inactive)	> 100 µM (inactive)	> 100 µM (inactive)	> 100 µM (inactive)	> 100 µM (inactive)	> 100 µM (inactive)	
COC(=O)CC1N/C(=N\C#N)N(CCc2c[nH]c3ccccc23)C1=O (stereo not drawn)		> 100 µM (inactive)		> 100 µM (inactive)	> 100 µM (inactive)			> 100 µM (inactive)	> 100 µM (inactive)	> 100 µM (inactive)	> 100 µM (inactive)	> 100 µM (inactive)	> 100 µM (inactive)	75.9 µM (inactive)	34.5 µM (inactive)	> 100 µM (inactive)	> 100 µM (inactive)
O=c1cc(-c2ccccc2)[nH]c2cc(F)cc(F)c12		61.7 µM (inactive)	41.6 µM (inactive)	36.6 µM (inactive)	11.9 µM (inactive)	16.7 µM (inactive)	11.9 µM (inactive)		57.5 µM (inactive)	52.5 µM (inactive)	63.7 µM (inactive)	29.1 µM (inactive)	40.1 µM (inactive)	37 µM (inactive)		30.3 µM (inactive)	20.9 µM (inactive)
CC(=O)NC(CCCCN(Cc1ccccc1)C(=O)NCCCl)C(=O)NCc1ccccc1 (stereo not drawn)		> 100 µM (inactive)	> 100 µM (inactive)	> 100 µM (inactive)	> 100 µM (inactive)	> 100 µM (inactive)	> 100 µM (inactive)	> 100 µM (inactive)	> 100 µM (inactive)	> 100 µM (inactive)		> 100 µM (inactive)	> 100 µM (inactive)	> 100 µM (inactive)	> 100 µM (inactive)	> 100 µM (inactive)	> 100 µM (inactive)
NC1CCCCC1.O=P(O)(O)C1(P(=O)(O)O)CC1	> 100 µM (inactive)	> 100 µM (inactive)		> 100 µM (inactive)	> 100 µM (inactive)	> 100 µM (inactive)	> 100 µM (inactive)	> 100 µM (inactive)	> 100 µM (inactive)	> 100 µM (inactive)	> 100 µM (inactive)	> 100 µM (inactive)	> 100 µM (inactive)	> 100 µM (inactive)	> 100 µM (inactive)	> 100 µM (inactive)	> 100 µM (inactive)
CCCCCCCCCC(=O)OCC1OC(n2cc(F)c(=O)[nH]c2=O)C(N)C(OC(=O)CCCCCCCCC)C1O (stereo not drawn)	15.5 µM (inactive)	18.5 µM (inactive)	20.6 µM (inactive)	17.5 µM (inactive)	16.7 µM (inactive)	16.9 µM (inactive)	14.6 µM (inactive)	18.6 µM (inactive)	18.2 µM (inactive)	16.9 µM (inactive)	36.1 µM (inactive)	17.1 µM (inactive)	20 µM (inactive)	21.6 µM (inactive)	15.5 µM (inactive)	19.2 µM (inactive)	
CCOC(=O)C1=C(Nc2ccccc2)SCC1=O			> 100 µM (inactive)	> 100 µM (inactive)	> 100 µM (inactive)	> 100 µM (inactive)	> 100 µM (inactive)	> 100 µM (inactive)	> 100 µM (inactive)	> 100 µM (inactive)	> 100 µM (inactive)	10 µM (inactive)	> 100 µM (inactive)	> 100 µM (inactive)	> 100 µM (inactive)	> 100 µM (inactive)	> 100 µM (inactive)
O=C(CC1(O)C(=O)Nc2ccccc21)c1ccc(O)cc1O (stereo not drawn)	> 100 µM (inactive)		> 100 µM (inactive)	> 100 µM (inactive)	> 100 µM (inactive)	> 100 µM (inactive)	> 100 µM (inactive)	> 100 µM (inactive)	> 100 µM (inactive)	> 100 µM (inactive)	> 100 µM (inactive)		> 100 µM (inactive)	> 100 µM (inactive)		> 100 µM (inactive)	> 100 µM (inactive)
O=C(O)/C=C/c1nc2ccccc2c(=O)o1		77.3 µM (inactive)	> 100 µM (inactive)	> 100 µM (inactive)	> 100 µM (inactive)		> 100 µM (inactive)	> 100 µM (inactive)	> 100 µM (inactive)	> 100 µM (inactive)	> 100 µM (inactive)	> 100 µM (inactive)		> 100 µM (inactive)	> 100 µM (inactive)	> 100 µM (inactive)	> 100 µM (inactive)
